One compound from patent US8486986B2, “Microbiocides” (Syngenta Crop Protection LLC, priority 2007, dated 2013) can be followed below.

As for `CC(Cc1c(-c2ccc(F)cc2)sc(Cl)c1Cl)NC(=O)c1cn(C)nc1C(F)(F)F` (stereo not shown) [Compound 7.72, 1-methyl-3-trifluoromethyl-1H-pyrazole-4-carboxylic acid {2-[4,5-dichloro-2-(4-fluorophenyl)-thiophen 3-yl]1-methylethyl}amide], the melting point (in general, the temperature of the solid-liquid transition) was 126 to 130 °C.
